test system: HEK293T cells carrying the ATF4 luciferase reporter; assay: ATF4-Luc assay, in vitro model of Vanishing Cell White Matter Disease (VWMD); assay type: cell-based; conditions: Homo sapiens, HEK-293T, 1 μg/mL tunicamycin, 7 hours, One Glo luminescence
Outline: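 Stable HEK293T line with human ATF4 5′-UTR–firefly luciferase reporter treated with 1 μg/mL tunicamycin plus 200 nM compound for 7 h. Luminescence read; EC50 derived.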

`O=C(COc1ccc(Cl)c(F)c1)NC12CC(NC(=O)c3cn4cccnc4n3)(C1)C2` [Compound 772, N-{3-[2-(4-chloro-3-fluorophenoxy)acetamido]bicyclo[1.1.1]pentan-1-yl}imidazo[1,2-a]pyrimidine-2-carboxamide] and `O=C(COc1ccc(Cl)c(F)c1)NC12CC(NC(=O)c3ncn4ccccc34)(C1)C2` [Compound 782, N-{3-[2-(4-chloro-3-fluorophenoxy)acetamido]bicyclo[1.1.1]pentan-1-yl}imidazo[1,5-a]pyridine-1-carboxamide] cannot be ordered by EC50: > 2000 nM for the first, > 2000 nM for the second.

First: O=C(COc1ccc(Cl)c(F)c1)NC12CC(NC(=O)c3ccccc3-n3cccn3)(C1)C2 [Compound 839, N-{3-[2-(4-chloro-3-fluorophenoxy)acetamido]bicyclo[1.1.1]pentan-1-yl}-2-(1H-pyrazol-1-yl)benzamide]
Second: O=C(COc1ccc(Cl)c(F)c1)NC12CC(NC(=O)c3c[nH]c4ccccc34)(C1)C2 [Compound 313, N-{3-[2-(4-chloro-3-fluorophenoxy)acetamido]bicyclo[1.1.1]pentan-1-yl}-1H-indole-3-carboxamide]
The EC50 of the first is higher: > 2000 nM for the first, 50 to 250 nM for the second.

First: O=C(COc1ccc(Cl)c(F)c1)NC12CCC(NC(=O)c3ccc(N4CCCC4)cn3)(CC1)CC2O (stereo not shown) [Compound 940, N-{4-[2-(4-chloro-3-fluorophenoxy)acetamido]-3-hydroxybicyclo[2.2.2]octan-1-yl}-5-(pyrrolidin-1-yl)pyridine-2-carboxamide]
Second: Cc1oncc1C(=O)NC12CCC(NC(=O)COc3ccc(Cl)c(F)c3)(CC1)C(O)C2 (stereo not shown) [Compound 604, N-{4-[2-(4-chloro-3-fluorophenoxy)acetamido]-3-hydroxybicyclo[2.2.2]octan-1-yl}-5-methyl-1,2-oxazole-4-carboxamide]
The EC50 of the first is lower: 50 to 250 nM for the first, > 2000 nM for the second. The first is the more potent here.

First: Cc1ncc(C(=O)NC23CC(NC(=O)COc4ccc(Cl)c(F)c4)(C2)C3)o1 [Compound 257, N-{3-[2-(4-chloro-3-fluorophenoxy)acetamido]bicyclo[1.1.1]pentan-1-yl}-2-methyl-1,3-oxazole-5-carboxamide]
Second: CC(O)c1ccnc(C(=O)NC23CC(NC(=O)COc4ccc(Cl)c(F)c4)(C2)C3)c1 (stereo not shown) [Compound 524, N-{3-[2-(4-chloro-3-fluorophenoxy)acetamido]bicyclo[1.1.1]pentan-1-yl}-4-(1-hydroxyethyl)pyridine-2-carboxamide]
The EC50 of the first is lower: 50 to 250 nM for the first, 250 to 1000 nM for the second. The first is the more potent here.

First: Cn1cc(-c2cc(C(=O)NC34CCC(NC(=O)COc5ccc(Cl)c(F)c5)(CC3)C(O)C4)on2)cn1 (stereo not shown) [Compound 633, N-{4-[2-(4-chloro-3-fluorophenoxy)acetamido]-3-hydroxybicyclo[2.2.2]octan-1-yl}-3-(1-methyl-1H-pyrazol-4-yl)-1,2-oxazole-5-carboxamide]
Second: O=C(COc1ccc(Cl)c(F)c1)NC12CCC(Nc3nccn4cnnc34)(CC1)[C@H](O)C2 [Compound 464, 2-(4-chloro-3-fluorophenoxy)-N-{(3R)-3-hydroxy-4-[([1,2,4]triazolo[4,3-a]pyrazin-8-yl)amino]bicyclo[2.2.2]octan-1-yl}acetamide]
The EC50 of the first is lower: 50 to 250 nM for the first, > 2000 nM for the second.

First: O=C(COc1ccc(Cl)c(F)c1)NC12CC(Nc3nccc(-c4ccccc4)n3)(C1)C2 [Compound 363, 2-(4-chloro-3-fluorophenoxy)-N-{3-[(4-phenylpyrimidin-2-yl)amino]bicyclo[1.1.1]pentan-1-yl}acetamide]
Second: O=C(COc1ccc(Cl)c(F)c1)NC12CC(NC(=O)c3coc4ccccc34)(C1)C2 [Compound 243, N-{3-[2-(4-chloro-3-fluorophenoxy)acetamido]bicyclo[1.1.1]pentan-1-yl}-1-benzofuran-3-carboxamide]
The EC50 of the first is higher: 1000 to 2000 nM for the first, 250 to 1000 nM for the second. The second is the more potent here.

`O=C(COc1ccc(Cl)c(F)c1)NC12CC(NC(=O)c3cc(N4CCOCC4)ccn3)(C1)C2` [Compound 180, N-{3-[2-(4-chloro-3-fluorophenoxy)acetamido]bicyclo[1.1.1]pentan-1-yl}-4-(morpholin-4-yl)pyridine-2-carboxamide] gave an EC50 of 1000 to 2000 nM.

Reference: patent US10913727B2, “Modulators of the integrated stress pathway” (Calico Life Sciences LLC, priority 2016, dated 2021)
